“And” between values parts separate entries of the source, which are not always exact repeats. Identical values can stand only once.

As usually defined, the IC50 is the concentration that inhibits the measured activity by half. A low value points to greater potency in that assay.

The test deals with T1, MNK2 (Homo sapiens, UniProt Q9HBH9).
T1 construct: the open reading frames of human Mnk1 and Mnk2a were amplified from cDNA; made in house; host or cells: E. coli BL21
T1 sequence (Q9HBH9 whole entry): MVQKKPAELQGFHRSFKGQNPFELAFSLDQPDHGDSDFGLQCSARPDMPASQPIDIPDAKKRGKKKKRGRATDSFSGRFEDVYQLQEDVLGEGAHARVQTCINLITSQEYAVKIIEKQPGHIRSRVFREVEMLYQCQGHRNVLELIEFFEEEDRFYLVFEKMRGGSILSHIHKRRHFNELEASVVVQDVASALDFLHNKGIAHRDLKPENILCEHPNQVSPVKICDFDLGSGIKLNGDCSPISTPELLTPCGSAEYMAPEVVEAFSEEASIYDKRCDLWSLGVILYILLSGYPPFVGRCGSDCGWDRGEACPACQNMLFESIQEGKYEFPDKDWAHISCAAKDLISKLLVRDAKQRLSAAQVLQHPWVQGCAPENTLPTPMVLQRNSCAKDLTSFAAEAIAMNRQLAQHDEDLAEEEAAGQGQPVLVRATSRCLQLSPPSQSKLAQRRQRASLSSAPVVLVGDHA
The test can be described thus: Mnk2a in vitro kinase assay (indirect fluorescence polarization). It is filed as biochemical. To be noted: pre-activated GST-Mnk2a 2.5 nM, 20 μM ATP, 30 μM substrate peptide. As for the experimental part: Inhibitory potency of compounds against Mnk1, Mnk2a and other kinases was assessed with assays based on a format known to those skilled in the art as the indirect (competitive) fluorescence polarization. The assay detection system comprises a small fluorophore-labeled phospho-peptide (termed ligand) bound to a phospho-specific antibody. The product generated by the kinase reaction competes with the ligand for antibody binding. Based on the larger molecular volume of the bound ligand, which results in a lower rotation rate in solution, its emitted light has a higher degree of polarization than the one from the free ligand.
Example 2a. Mnk1 and Mnk2a in vitro kinase assay
As a source of enzyme, human Mnk1 and human Mnk2a were expressed as GST fusion proteins in E. coli, purified to >80% homogeneity by glutathione affinity chromatography and activated in vitro with pre-activated ERK2. In brief, the open reading frames of human Mnk1 and Mnk2a were amplified from cDNA using the forward/reverse primer pairs
(utilized restriction sites underlined), respectively, and cloned into the BamHI and SalI sites of the vector pGEX-4T1 (Amersham, Sweden, cat. no. 27-4580-01). These constructs allow prokaryotic expression of Mnk1 or Mnk2a as fusion protein with a N-terminal glutathione S-transferase (GST) tag, referred to as GST-Mnk1 or GSTMnk2a. The following expression and purification procedure was identical for GSTMnk1 and GST-Mnk2a, referring in general to GST-Mnk, when not distinguishing between the two isoforms. Expression of GST-Mnk was in E. coli BL21 (Merck Biosciences, Germany, cat. no. 69449). Cells were grown in LB-Bouillon (Merck, Germany, cat. no. 1.10285) supplemented with 100 μg/ml ampicillin (Sigma, Germany, cat. no. A9518) at 37° C. When the culture had reached a density corresponding to an A600 of 0.8, an equal volume of ice cold LB/ampicillin was added, the culture transferred to 25° C. and induced for 4 h with 1 mM isopropyl thiogalactoside (IPTG, Roth, Germany, cat. no. 2316.4). Cells harvested by centrifugation were resuspended in 10 ml lysis buffer (50 mM tris(hydroxymethyl)aminomethane hydrochloride (Tris/HCl, Sigma, Germany, cat. no. T5941) pH 7.5, 300 mM sodium chloride (NaCl, Sigma, Germany, cat. no. S7653), 5% (w/v) glycerol (Sigma, Germany, cat. no. G5516), 3 mM DTT dithiotreitol (DTT, Sigma, Germany, cat. no. D9779)) per gram wet weight cell pellet. Lysates were prepared by disruption of cells with a sonifier and subsequent clearing by centrifugation at 38000 g for 45 min at 4° C.
The lysate was applied to a GSTPrep FF 16/10 column (Amersham, Sweden, cat. no. 17-5234-01) equilibrated with lysis buffer. Removal of unbound material was with 3 column volumes (CV) lysis buffer. Elution was with 2 CV of elution buffer (50 mM Tris/HCl pH 7.5, 300 mM NaCl, 5% (w/v) glycerol, 20 mM glutathione (Sigma, Germany, cat. no. G4251)). Peak fractions were pooled and the protein transferred into storage buffer (50 mM Tris/HCl pH 7.5, 200 mM NaCl, 0.1 mM ethylene glycolbis(2-aminoethylether)-N,N,N′,N′-tetraacetic acid (EGTA, Aldrich, Germany, cat. no. 23, 453-2), 1 mM DTT, 10% (w/v) glycerol, 0.5 M sucrose (Sigma, Germany, cat. no. S0389) by gel filtration on a PD10 desalting column (Amersham, Sweden, cat. no. 17-0851-01). Aliquots were shock frozen in liquid nitrogen and stored at −80° C.
Activation of Mnk1 and Mnk2a was at a concentration of 2.5 μM of either purified GST-Mnk1 or GST-Mnk2a by incubation with 150 nM pre-activated NHis-ERK2 (see ERK2 assay for preparation) and 50 μM adenosine triphosphate (ATP, Sigma, cat. no. A2699) in a buffer comprising 20 mM N-(2-hydroxyethyl)piperazine-N′-(2-ethanesulfonic acid) (HEPES, Fluka, Germany, cat. no 54459)/potassium hydroxide (KOH, Roth, Germany, cat. no 6751.1) pH 7.4, 10 mM magnesium chloride (MgCl2, Sigma, Germany, cat. no. M2670), 0.25 mM DTT, 0.05% (w/v) polyoxyethylene 20 stearylether (Brij 78, Sigma, Germany, cat. no. P4019) (HMDB buffer) for 45 min at 30° C. […]
On to “4-(4-fluoro-2-(cis-3-hydroxycyclopentyloxy)phenylamino)-5-methylthieno[2,3-d]pyrimidine-6-carboxamide and 4-(4-fluoro-2-(trans-3-hydroxycyclopentyloxy)phenylamino)-5-methylthieno[2,3-d]pyrimidine-6-carboxamide [Example 242]”, for which the IC50 is 5 nM and 4 nM.

In turn, `Cc1c(C(=O)NC2CC2N)sc2ncnc(Nc3ccc(F)cc3OC3CCCC(O)C3)c12` (mixture of isomers) [Example 59] returned an IC50 of 34 nM.

Take `Cc1c(C(=O)NCC2CNCCO2)sc2ncnc(Nc3ccc(F)cc3OC3CCCC(O)C3)c12` (mixture of isomers) [Example 67]: half-maximal inhibition (IC50) was put at 18 nM. Compound `Cc1c(C(=O)NCC2COCCN2)sc2ncnc(Nc3ccc(F)cc3OC3CCCC(O)C3)c12` (mixture of isomers) [Example 68] yielded an IC50 of 31 nM.

As to `Cc1c(C(=O)NCC(C)O)sc2ncnc(Nc3ccc(F)cc3OC3CCCC(O)C3)c12` (mixture of isomers) [Example 73], 43 nM corresponded to half-maximal inhibition (IC50). As to `COC1CCCC(Oc2cc(F)ccc2Nc2ncnc3sc(C(=O)NCC4CNCCO4)c(C)c23)C1` (mixture of isomers) [Example 83], the IC50 came to 53 nM. In turn, `COC1CCCC(Oc2cc(F)ccc2Nc2ncnc3sc(C(=O)NCC4CNCCO4)c(C)c23)C1` (mixture of isomers) [Example 98] displayed an IC50 of 17 nM. For the compound `COC1CCCC(Oc2ncccc2Nc2ncnc3sc(C(=O)NC4CC4N)c(C)c23)C1` (mixture of isomers) [Example 111], the half-maximal inhibitory concentration (IC50) was 36 nM. As to `COC1CCCC(Oc2ncccc2Nc2ncnc3sc(C(=O)NCC4CNCCO4)c(C)c23)C1` (mixture of isomers) [Example 119], the IC50 was 11 nM. Consider `COC1CCCC(Oc2ncccc2Nc2ncnc3sc(C(=O)NC4CC4N)c(C)c23)C1` (mixture of isomers) [Example 132], for which the IC50 is 96 nM. For `COC1CCCC(Oc2ncccc2Nc2ncnc3sc(C(=O)NCC4COCCN4)c(C)c23)C1` (mixture of isomers) [Example 141] the value was 89 nM.

`COC1CCCC(Oc2ncccc2Nc2ncnc3sc(C(=O)NCC(C)O)c(C)c23)C1` (mixture of isomers) [Example 146] returned an IC50 of 105 nM. For `Cc1c(C(N)=O)sc2ncnc(Nc3ccc(F)cc3O[C@@H]3CCCC[C@H]3N(C)S(C)(=O)=O)c12` (racemic) [Example 13, Racemic 4-(4-Fluoro-2-(trans-2-(N-methylmethylsulfonamido)cyclohexyloxy)phenylamino)-5-methylthieno[2,3-d]pyrimidine-6-carboxamide] the value was 440 nM; for `CC(=O)N(C)[C@@H]1CCCC[C@H]1Oc1cc(F)ccc1Nc1ncnc2sc(C(N)=O)c(C)c12` (racemic) [Example 14, Racemic 4-(4-fluoro-2-(trans-2-(N-methylacetamido)cyclohexyloxy)phenylamino)-5-methylthieno[2,3-d]pyrimidine-6-carboxamide], 1600 nM. Take `CO[C@@H]1CCCC[C@H]1Oc1cc(F)ccc1Nc1ncnc2sc(C(N)=O)c(C)c12` (racemic) [Example 50, Racemic 4-[4-Fluoro-2-(trans-2-methoxy-cyclohexyloxy)-phenylamino]-5-methyl-thieno[2,3-d]pyrimidine-6-carboxylic acid amide]: half-maximal inhibition (IC50) was put at 10 nM. In turn, `CO[C@H]1CCCC[C@H]1Oc1cc(F)ccc1Nc1ncnc2sc(C(N)=O)c(C)c12` (racemic) [Example 55, Racemic 4-[4-Fluoro-2-(cis-2-methoxy-cyclohexyloxy)-phenylamino]-5-methyl-thieno[2,3-d]pyrimidine-6-carboxylic acid amide] had an IC50 of 59 nM. In the case of `Cc1c(C(N)=O)sc2ncnc(Nc3ccc(F)cc3O[C@@H]3CCCC[C@@H]3O)c12` (racemic) [Example 56, Racemic 4-[4-Fluoro-2-((cis)-2-hydroxy-cyclohexyloxy)-phenylamino]-5-methyl-thieno[2,3-d]pyrimidine-6-carboxylic acid amide], half-maximal inhibition (IC50) required 33 nM. The compound `Cc1c(C(N)=O)sc2ncnc(Nc3ccc(F)cc3O[C@@H]3CCC[C@H](O)C3)c12` (racemic) [Example 57, Racemic 4-[4-Fluoro-2-((cis)-3-hydroxy-cyclohexyloxy)-phenylamino]-5-methyl-thieno[2,3-d]pyrimidine-6-carboxylic acid amide] gave an IC50 of 7 nM. In turn, `Cc1c(C(N)=O)sc2ncnc(Nc3ccc(F)cc3O[C@@H]3CCC[C@@H](O)C3)c12` (racemic) [Example 58, Racemic 4-[4-Fluoro-2-((trans)-3-hydroxy-cyclohexyloxy)-phenylamino]-5-methyl-thieno[2,3-d]pyrimidine-6-carboxylic acid amide] had an IC50 of 6 nM.

The compound `Cc1c(C(=O)NCC#CCN)sc2ncnc(Nc3ccc(F)cc3O[C@@H]3CCC[C@@H](O)C3)c12` (racemic) [Example 60] showed an IC50 of 14 nM. The compound `Cc1c(C(=O)NCCCCO)sc2ncnc(Nc3ccc(F)cc3O[C@@H]3CCC[C@@H](O)C3)c12` (racemic) [Example 61] displayed an IC50 of 26 nM. As to `Cc1c(C(=O)NCc2cnco2)sc2ncnc(Nc3ccc(F)cc3O[C@@H]3CCC[C@@H](O)C3)c12` (racemic) [Example 62], the IC50 is 17 nM. As for `Cc1c(C(=O)NCC#N)sc2ncnc(Nc3ccc(F)cc3O[C@@H]3CCC[C@@H](O)C3)c12` (racemic) [Example 63], the IC50 worked out at 14 nM. On to `CNC(=O)CNC(=O)c1sc2ncnc(Nc3ccc(F)cc3O[C@@H]3CCC[C@@H](O)C3)c2c1C` (racemic) [Example 64], for which the IC50 was determined as 21 nM. `Cc1c(C(=O)NCC#CCN(C)C)sc2ncnc(Nc3ccc(F)cc3O[C@@H]3CCC[C@@H](O)C3)c12` (racemic) [Example 65] had an IC50 of 16 nM. `Cc1c(C(=O)NCCCN2CCOCC2)sc2ncnc(Nc3ccc(F)cc3O[C@@H]3CCC[C@@H](O)C3)c12` (racemic) [Example 66] showed an IC50 of 26 nM.

`Cc1c(C(=O)N[C@H]2CC[C@H](O)CC2)sc2ncnc(Nc3ccc(F)cc3O[C@@H]3CCC[C@@H](O)C3)c12` (racemic) [Example 69] displayed an IC50 of 34 nM. Compound `Cc1c(C(=O)NCCN2CCCCC2)sc2ncnc(Nc3ccc(F)cc3O[C@@H]3CCC[C@@H](O)C3)c12` (racemic) [Example 72] gave an IC50 of 23 nM. The compound `Cc1c(C(=O)NCCCO)sc2ncnc(Nc3ccc(F)cc3O[C@@H]3CCC[C@@H](O)C3)c12` (racemic) [Example 74] came in with an IC50 of 22 nM. Compound `Cc1c(C(=O)NCc2cn(C)cn2)sc2ncnc(Nc3ccc(F)cc3O[C@@H]3CCC[C@@H](O)C3)c12` (racemic) [Example 76] showed a 50% inhibitory concentration (IC50) of 13 nM. Compound `CCNC(=O)c1sc2ncnc(Nc3ccc(F)cc3O[C@@H]3CCC[C@@H](O)C3)c2c1C` (racemic) [Example 78] had an IC50 of 25 nM. `CO[C@@H]1CCC[C@@H](Oc2cc(F)ccc2Nc2ncnc3sc(C(N)=O)c(C)c23)C1` (racemic) [Example 79, Racemic 4-[4-Fluoro-2-((trans)-3-methoxy-cyclohexyloxy)-phenylamino]-5-methyl-thieno[2,3-d]pyrimidine-6-carboxylic acid amide]: it took 15 nM to reach half-maximal inhibition (IC50).

The values are drawn from patent US8754079B2, “Cycloalkyl containing thienopyrimidines for pharmaceutical compositions” (Boehringer Ingelheim International GmbH, priority 2010, dated 2014).
